Experimental data reported in patent publication US20030114445A1, “N3-substituted 6-anilinopyrimidines and methods to treat-Gram-positive bacterial and mycoplasmal infections” (priority 2001, published 2003).
In brackets after ≈: the same amount, converted by molar mass. Like-named read-outs stand apart in the source and are kept apart here.

Legend:
B. subtilis = experiment: Inhibition of bacterial growth on agar plates (MIC); format: cell-based; conditions: Bacillus subtilis, 37° C., 24 hours
Description: (§1) Each compound is assayed against a panel of Bacillus, Enterococcus and Staphylococcus, and a Gram-negative bacterium Escherichia coli as negative control, grown in appropriate plate media solidified with 1.3% agar-agar. Stock solutions of the compounds in dimethylsulfoxide or water, depending on solubility, are added to sterile medium at a temperature of 60° C. […] One tenth mL of diluted bacteria containing 500-1000 colony-forming units (CFU) are plated and spread, and the plates incubated at 37° C. for 24 hours. MIC (minimum inhibitory concentration) is equivalent to the lowest concentration at which growth, i.e. colony formation, is not observed.

E. fecium = experiment: as above; format: cell-based; conditions: 37° C., 24 hours
Description: as §1

E. fecalis = experiment: as above; format: cell-based; conditions: 37° C., 24 hours
Description: as §1

S.aureus (Smith) = experiment: as above; format: cell-based; conditions: Staphylococcus aureus, 37° C., 24 hours
Description: as §1

B.subtilis pol IIIC = B.subtilis pol IIIC (Bacillus subtilis, UniProt P13267); experiment: biochemical
Description: DNA pol activity was assayed as described in Barnes et al., Nuc. Acids Res., 6:1203-19 (1979), using activated “nicked” calf-thymus DNA as template primer, 10 pM [^3H-methyl]-dTTP as the labelled dNTP substrate, and dATP, dCTP, and dGTP at 25 μM each.
Inhibitory activity of the compounds is determined by measuring the ability of the agent to inhibit enzyme-catalyzed incorporation of [^3H]-dTMP into nicked calf thymus DNA in the absence of the competitor dGTP or dATP (“truncated assay”) (see G. E. Wright and N. C. Brown, Inhibition of Bacillus subtilis DNA Polymerase III by Arylhydrazinopyrimidines: Novel Properties of 2-Thiouracil Derivatives, Biochim. Biophys. Acta 432:37-48 (1976)). Purified pol IIIC is added to a buffered solution containing Mg^2+, DTT, glycerol, nicked calf thymus DNA, saturating concentrations of dATP, dCTP, dTTP and [^3H]-dTTP. Reaction mixtures are incubated at 30° C. for 10 minutes, quenched and filtered, and radioactivity in the acid-insoluble material measured by scintillation counting. Experiments are done in triplicate. Inhibitors are assayed by addition of several dilutions of a stock solution of inhibitor (DMSO or water, depending on solubility) before enzyme addition. […] The truncated assay, i.e. exclusion of the competitive substrate dGTP or dATP, depending upon whether the compound is a uracil derivative or an isocytosine derivative, respectively, allows for the direct determination of apparent inhibitor constants (K,) in this assay system.

[1] = truncated assay, apparent inhibitor constant, read-out: K1 B.subtilis pol IIIC

Sequence of B.subtilis pol IIIC (P13267 whole entry): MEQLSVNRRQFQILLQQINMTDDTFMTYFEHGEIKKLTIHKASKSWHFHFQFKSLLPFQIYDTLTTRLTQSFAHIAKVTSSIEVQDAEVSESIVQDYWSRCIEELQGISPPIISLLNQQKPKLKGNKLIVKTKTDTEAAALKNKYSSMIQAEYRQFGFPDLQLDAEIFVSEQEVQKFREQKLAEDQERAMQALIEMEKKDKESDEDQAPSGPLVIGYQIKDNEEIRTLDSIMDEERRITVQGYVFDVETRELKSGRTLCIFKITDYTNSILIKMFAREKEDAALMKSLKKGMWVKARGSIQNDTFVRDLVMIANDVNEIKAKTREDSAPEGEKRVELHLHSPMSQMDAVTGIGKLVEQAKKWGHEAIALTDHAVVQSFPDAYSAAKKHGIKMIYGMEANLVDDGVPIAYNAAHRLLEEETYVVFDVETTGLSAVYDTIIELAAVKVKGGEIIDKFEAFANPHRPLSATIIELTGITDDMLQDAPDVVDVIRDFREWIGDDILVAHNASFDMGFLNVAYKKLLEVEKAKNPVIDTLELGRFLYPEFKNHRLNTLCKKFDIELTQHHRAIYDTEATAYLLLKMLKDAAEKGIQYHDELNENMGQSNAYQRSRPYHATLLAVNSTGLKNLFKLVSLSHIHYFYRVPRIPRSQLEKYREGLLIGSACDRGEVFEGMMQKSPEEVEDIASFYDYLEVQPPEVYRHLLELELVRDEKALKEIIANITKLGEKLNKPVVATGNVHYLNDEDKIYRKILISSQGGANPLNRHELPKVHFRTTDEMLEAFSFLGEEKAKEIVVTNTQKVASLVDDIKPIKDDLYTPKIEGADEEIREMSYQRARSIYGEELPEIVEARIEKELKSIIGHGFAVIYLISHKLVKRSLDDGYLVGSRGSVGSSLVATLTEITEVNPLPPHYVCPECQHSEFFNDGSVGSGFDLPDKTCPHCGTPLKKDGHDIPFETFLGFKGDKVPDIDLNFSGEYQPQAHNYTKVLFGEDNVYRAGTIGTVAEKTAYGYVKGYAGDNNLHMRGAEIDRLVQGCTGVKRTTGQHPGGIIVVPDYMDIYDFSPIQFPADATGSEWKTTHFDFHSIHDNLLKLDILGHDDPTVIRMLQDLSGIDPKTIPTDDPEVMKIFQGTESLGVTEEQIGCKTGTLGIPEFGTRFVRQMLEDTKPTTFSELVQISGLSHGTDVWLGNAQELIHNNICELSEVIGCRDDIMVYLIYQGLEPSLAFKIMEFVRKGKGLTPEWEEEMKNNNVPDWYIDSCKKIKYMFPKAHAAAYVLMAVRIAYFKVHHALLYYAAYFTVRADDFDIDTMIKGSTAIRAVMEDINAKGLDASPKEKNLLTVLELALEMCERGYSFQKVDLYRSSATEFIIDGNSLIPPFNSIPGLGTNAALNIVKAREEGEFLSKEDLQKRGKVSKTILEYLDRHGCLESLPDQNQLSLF

SMILES	MIC (B. subtilis) [µg/mL]	MIC (E. fecium) [µg/mL]	MIC (E. fecalis) [µg/mL]	MIC (S.aureus (Smith)) [µg/mL]	Ki (B.subtilis pol IIIC; [1]) [nM]	Ki (B.subtilis pol IIIC) [nM]
CCc1cc(Nc2cc(=O)n(CCCCN3CCC(O)(c4ccc(Cl)c(C(F)(F)F)c4)CC3)c(=O)[nH]2)ccc1C [Compound 37, 3{[4-(3-Trifluoromethylphenyl-4-chloro-)-4-hydroxypiperidino]butyl}-6-(3-ethyl-4-methylanilino)uracil]	1.25 (≈ 2.16 µM)	2.5 (≈ 4.32 µM)	2.5 (≈ 4.32 µM)	2.5 (≈ 4.32 µM)	32	–
CCc1cc(Nc2cc(=O)n(CCCCN3CCC(O)(c4ccc(Cl)cc4)CC3)c(=O)[nH]2)ccc1C [Compound 38, 3{[4-(4-Chlorophenyl)-4-hydroxypiperidino]butyl}-6-(3-ethyl-4-methylanilino)uracil]	5 (≈ 9.78 µM)	5 (≈ 9.78 µM)	5 (≈ 9.78 µM)	5 (≈ 9.78 µM)	25	–
CCc1cc(Nc2cc(=O)n(CCN3CCN(C(=O)c4ccccc4)CC3)c(=O)[nH]2)ccc1C [Compound 39, 3-[2-(4-Benzoylpiperazino)ethyl]-6-(3-ethyl-4-methylanilino)uracil]	2.5 (≈ 5.42 µM)	5 (≈ 10.8 µM)	10 (≈ 21.7 µM)	10 (≈ 21.7 µM)	–	77
CCc1cc(Nc2cc(=O)n(CCCCN3CCN(C(=O)c4ccco4)CC3)c(=O)[nH]2)ccc1C [Compound 40, 3-{4-[4-(2-Furoyl)piperazino]butyl}-6-(3-ethyl-4-methylanilino)uracil]	5 (≈ 10.4 µM)	10 (≈ 20.9 µM)	5 (≈ 10.4 µM)	5 (≈ 10.4 µM)	43	–
CCc1cc(Nc2cc(=O)n(CCCCN3CCN(Cc4ccccc4)CC3)c(=O)[nH]2)ccc1C [Compound 41, 3-[4-(4-Benzylpiperazino)butyl]-6-(3-ethyl-4-methylanilino)uracil]	5 (≈ 10.5 µM)	5 (≈ 10.5 µM)	10 (≈ 21 µM)	> 20	–	34
CCc1cc(Nc2cc(=O)n(CCCCN3CCN(c4ncccn4)CC3)c(=O)[nH]2)ccc1C [Compound 45, 3-{4-[4-(2-pyrimidinyl)piperazinyl]butyl}-6-(3-ethyl-4-methyylanilino)uracil]	2.5 (≈ 5.39 µM)	5 (≈ 10.8 µM)	5 (≈ 10.8 µM)	10 (≈ 21.6 µM)	43	–
CCc1cc(Nc2cc(=O)n(CCCCN3CCN(c4ccc(F)cc4)CC3)c(=O)[nH]2)ccc1C [Compound 46, 3-{4-[(4-fluorophenyl)piperazinyl]butyl}-6-(3-ethyl-4-methyylanilino)uracil]	5 (≈ 10.4 µM)	5 (≈ 10.4 µM)	10 (≈ 20.9 µM)	20 (≈ 41.7 µM)	70	–
CCc1cc(Nc2cc(=O)n(CCCCOC(=O)N3CCOCC3)c(=O)[nH]2)ccc1C [Compound 47, 3-[4-(N-morpholinocarbonyloxy)butyl]-6-(3-ethyl-4-methylanilino)uracil]	< 1.25	5 (≈ 11.6 µM)	5 (≈ 11.6 µM)	5 (≈ 11.6 µM)	–	71
CCc1cc(Nc2cc(=O)n(CCCCNS(=O)(=O)c3cccs3)c(=O)[nH]2)ccc1C [Compound 48, 3-[4-(2-thienylsulfonylamino)butyl]-6-(3-ethyl-4-methylanilino)uracil]	2.5 (≈ 5.4 µM)	2.5 (≈ 5.4 µM)	5 (≈ 10.8 µM)	5 (≈ 10.8 µM)	–	75
CCc1cc(Nc2cc(=O)n(CCCCNC(=O)C3CC3)c(=O)[nH]2)ccc1C [Compound 49, 3-{4-[(cyclopropylcarbonyl)amino]butyl}-6-(3-ethyl-4-methylanilino)uracil]	5 (≈ 13 µM)	2.5 (≈ 6.5 µM)	5 (≈ 13 µM)	5 (≈ 13 µM)	–	82
CCc1cc(Nc2cc(=O)n(CCCCNC(=O)CCl)c(=O)[nH]2)ccc1C [Compound 50, 3-{4-[(chloromethylcarbonyl)amino]butyl}-6-(3-ethyl-4-methylanilino)uracil]	2.5 (≈ 6.36 µM)	10 (≈ 25.5 µM)	5 (≈ 12.7 µM)	5 (≈ 12.7 µM)	–	35
CCc1cc(Nc2cc(=O)n(CCCCOC(=O)CCl)c(=O)[nH]2)ccc1C [Compound 51, 3-[4-(2-chloroacetoxy)butyl]-6-(3-ethyl-4-methylanilino)uracil]	0.313 (≈ 0.795 µM)	5 (≈ 12.7 µM)	2.5 (≈ 6.35 µM)	10 (≈ 25.4 µM)	–	40
CCc1cc(Nc2cc(=O)n(CCCCN3CCN(c4nc(C)cc(C(=O)O)n4)CC3)c(=O)[nH]2)ccc1C [Compound 60, 3-{4-[4-(6-methyl-4-carboxy-2-pyrimidinyl)-1-piperazinyl]butyl}-6-(3-ethyl-4-methylanilino)uracil]	40 (≈ 76.7 µM)	40 (≈ 76.7 µM)	40 (≈ 76.7 µM)	40 (≈ 76.7 µM)	–	16
CCc1cc(Nc2cc(=O)n(CCCCN3CCN(c4nc(C)cc(C(=O)OC)n4)CC3)c(=O)[nH]2)ccc1C [Compound 61, 3-{4-[4-(6-methyl-4-methoxycarbonyl-2-pyrimidinyl)-1-piperazinyl]butyl}-6-(3-ethyl-4-methylanilino)uracil]	10 (≈ 18.7 µM)	20 (≈ 37.3 µM)	20 (≈ 37.3 µM)	40 (≈ 74.7 µM)	–	66
CCc1cc(Nc2cc(=O)n(CCCCN3CCN(c4ncc(C(=O)OC)c(C(F)(F)F)n4)CC3)c(=O)[nH]2)ccc1C [Compound 62, 3-{4-[4-(4-trifluoromethyl-5-methoxycarbonyl-2-pyrimidinyl)-1-piperazinyl]butyl}-6-(3-ethyl-4-methylanilino)uracil]	80 (≈ 136 µM)	80 (≈ 136 µM)	80 (≈ 136 µM)	80 (≈ 136 µM)	–	550
CCc1cc(Nc2cc(=O)n(CCCCCNC[C@H]3CCNC3)c(=O)[nH]2)ccc1C [Compound 63, 3(S)-{5-[(3-pyrrolidinyl)methylamino]pentyl}-6-(3-ethyl-4methylanilino)uracil]	20 (≈ 48.4 µM)	80 (≈ 193 µM)	80 (≈ 193 µM)	40 (≈ 96.7 µM)	–	112
CCc1cc(Nc2cc(=O)n(CCCCN3CCN(c4ccc(C(F)(F)F)cc4[N+](=O)[O-])CC3)c(=O)[nH]2)ccc1C [Compound 64, 3-{4-[4-(2-nitro-4-trifluoromethylphenyl)-1-piperazinyl]butyl}-6-(3-ethyl-4-methylanilino)uracil]	80 (≈ 139 µM)	80 (≈ 139 µM)	80 (≈ 139 µM)	80 (≈ 139 µM)	–	58800
CCc1cc(Nc2cc(=O)n(CCCCN3CCN(c4ncc(C(=O)O)c(C(F)(F)F)n4)CC3)c(=O)[nH]2)ccc1C [Compound 65, 3-{4-[4-(4-trifluoromethyl-5-carboxy-2-pyrimidinyl)-1-piperazinyl]butyl}-6-(3-ethyl-4-methylanilino)uracil]	80 (≈ 139 µM)	40 (≈ 69.5 µM)	80 (≈ 139 µM)	80 (≈ 139 µM)	–	113
CCc1cc(Nc2cc(=O)n(CCCCCNc3ncc(C#N)c(N)n3)c(=O)[nH]2)ccc1C [Compound 66, 3-{5-[(4-amino-5-cyano-2-pyrimidinyl)amino]pentyl}-6-(3-ethyl-4-methylanilino)uracil]	80 (≈ 178 µM)	80 (≈ 178 µM)	80 (≈ 178 µM)	80 (≈ 178 µM)	–	39500
CCc1cc(Nc2cc(=O)n(CCCCCn3cnc4c(=O)n(C)c(=O)n(C)c43)c(=O)[nH]2)ccc1C [Compound 67, 3-{5-[9-(1,3-dimethyl-2,6-dioxopurinyl)]pentyl}-6-(3-ethyl-4-methylanilino)uracil]	2.5 (≈ 5.07 µM)	10 (≈ 20.3 µM)	20 (≈ 40.5 µM)	10 (≈ 20.3 µM)	–	60
CCc1cc(Nc2cc(=O)n(CCCCCN3CCc4c([nH]c5ccc(OC)cc45)C3C(=O)O)c(=O)[nH]2)ccc1C (stereo not drawn) [Compound 68, 3-[5-(1-carboxy-6-methoxy-2,3,4,9-tetrahydro-1H-β-carboline-2-yl)pentyl]-6-(3-ethyl-4-methylanilino)uracil]	20 (≈ 35.7 µM)	80 (≈ 143 µM)	80 (≈ 143 µM)	40 (≈ 71.5 µM)	–	288
CCc1cc(Nc2cc(=O)n(CCCCCN3CCc4c([nH]c5ccc(OC)cc45)C3)c(=O)[nH]2)ccc1C [Compound 69]	5 (≈ 9.7 µM)	20 (≈ 38.8 µM)	20 (≈ 38.8 µM)	10 (≈ 19.4 µM)	–	109
CCc1cc(Nc2cc(=O)n(CCCCCNC(=O)c3cccs3)c(=O)[nH]2)ccc1C [Compound 70, 3-[5-(2-thiophenecarboxamido)pentyl]-6-(3-ethyl-4-methylanilino)uracil]	1.25 (≈ 2.84 µM)	5 (≈ 11.3 µM)	5 (≈ 11.3 µM)	10 (≈ 22.7 µM)	–	65
